In article PMC4801399, “Impact of a CXCL12/CXCR4 Antagonist in Bleomycin (BLM) Induced Pulmonary Fibrosis and Carbon Tetrachloride (CCl4) Induced Hepatic Fibrosis in Mice” (PLoS ONE, 2016):

Legend:
[1] = test system: leukocyte mobilization (blood cell counts); experiment: Hematology measurements after IP administration (leukocyte mobilization); format: in vivo, C57BL/6 mice; conditions: IP 400 μg/mouse
Protocol: At each endpoint, animals were euthanized with CO2 and blood collected via cardiac puncture. An aliquot was set aside at room temperature for hematology measurements with remaining blood processed for plasma for drug concentration determination. Lungs and livers were also collected and immediately frozen on dry ice and stored at -70°C until determination of drug concentration.

[2] = AMD070 PK study via PO: plasma and lung concentration; format: in vivo, CD-1 mice
Protocol: At each endpoint, mice were euthanized with CO2 and blood collected via cardiac puncture. An aliquot was set aside at room temperature for hematology measurements with remaining blood processed for plasma for drug concentration determination. Lungs were collected and immediately frozen on dry ice and stored at -70°C until determination of drug concentration. AMD070 concentrations in mouse plasma were determined using protein precipitation extraction followed by UPLC-MS/MS analysis. Briefly, 100 μL aliquots of plasma were transferred to individual wells of an Isolute PPT+ (Biotage) array plate containing 300 μL of 0.1% formic acid (FA) in acetonitrile (ACN). […] The sample residue was then reconstituted into 200 μL of 0.1/5/95 FA/ACN/H2O (v/v/v) and analyzed using reverse phase chromatography (gradient elution) combined with multiple reaction monitoring acquisition (MRM). The mobile phases consisted of 0.1% FA in H2O and 0.1% FA in ACN. AMD070 was extracted from lung and liver tissue by homogenization under basic conditions followed by liquid-liquid extraction in tert-butyl methyl ether (TBME) and ethyl acetate respectively. In summary, 50 mg of lung or liver tissue pieces were cut, weighed, and transferred to homogenization tubes. 25 μL of deionized water for lung and 10 μL for liver were added to each tube, followed by the addition of zirconium (Zr) homogenization beads. The samples were homogenized for approximately 20 seconds in the BeadBeater, followed by 1 minute of centrifugation at room temperature at 13,520 rcf. 200 μL of 1 N NaOH was then transferred to each tube, followed by a second homogenization/centrifugation cycle as described above. […] The dried residue was reconstituted into 0.1/5/95 TFA/ACN/H2O and analyzed using reverse phase chromatography (gradient elution) combined with MRM acquisition in positive electrospray mode (ES+). The mobile phases consisted of 0.1% TFA in H2O and 0.1% TFA in ACN.

[3] = test system: leukocyte mobilization (blood cell counts); experiment: Hematology measurements after SC administration; format: in vivo, C57BL/6 mice; conditions: SC 400 μg/mouse; data not shown
Protocol: Non fasted C57BL/6 mice at 7 to 8 weeks of age from Harlan were sacrificed at 0.5, 1, 3, 24 and 48 hours (n = 3/time point) post administration of AMD070 (in 30 mM acetate buffer, pH 5) (400 μg/mouse). All preceding procedures were same as those for AMD070 PK studies via IP injections.

## NCCCCN(Cc1nc2ccccc2[nH]1)[C@H]1CCCc2cccnc21 [AMD070]
[1]
  RBC levels: unaffected
  Tmax of WBC increase: 3 h
  WBC counts: significant but transient increase
  lymphocytes (WBC differential): increased
  neutrophils (WBC differential): increased
  platelet levels: unaffected
[2]; PO 200 μg/animal
  drug levels in the lungs: detectable but not quantifiable
[2]; PO 400 μg/animal
  lung Cmax: 267 ng/g
  time of lung Cmax after PO: 6 h
[2]; PO 200 or 400 μg/animal, data not shown
  plasma concentrations of drug: very low
[2]; of the 24 hours after dosing, PO 400 μg/animal, WinNonlin analysis
  time lung concentration above IC50 and EC90: at least 21 hours
[3]
  blood cell count changes compared with IP: magnitude of these changes were lower
